Results as given in patent publication US10561676B2, “Method for treating cancer using dual antagonists of CXCR1 and CXCR2” (Syntrix Biosystems, Inc., priority 2018, dated 2020).

Experiments:
neutrophils = assay: Murine air-pouch model of inflammation; type: in vivo; conditions: depending on the dose given
[1] = Stability in human liver microsomes (NADPH-dependent); type: in vitro ADME; conditions: 37° C., NADPH-dependent
Description: The compounds were incubated in duplicate with human liver microsomes at 37° C. The reaction contained microsomal protein in 100 mM potassium phosphate, 2 mM NADPH, 3 mM MgCl2, pH 7.4. A control was run for each compound omitting NADPH to detect NADPH-independent degradation. An aliquot was removed from each experimental and control reaction at 0, 10, 20, 30, and 60 minutes and mixed with an equal volume of ice-cold Stop Solution (0.3% acetic acid in acetonitrile containing haloperidol, diclofenac, or other internal standard). Stopped reactions were incubated for at least ten minutes at −20° C., and an additional volume of water was added. The samples were centrifuged to remove precipitated protein, and the supernatants were analyzed by LCMS/MS to quantitate the remaining compound. Data were converted to percent remaining by dividing by the time zero concentration value. Data were fit to a first-order decay model to determine half-life. Intrinsic clearance was calculated from the half-life and the protein concentrations: CLint=ln(2)/(t½[microsomal protein]). […] More surprising is that eliminating the ring nitrogen in SX-517 yielded a half-life even larger than that of SX-682. The results as a whole led to no SAR predictive of the surprising stability of SX-682.

[2] = Stability in human plasma; type: in vitro ADME; conditions: for t½: 5 μM, 37° C., LC-MS/MS detection
Description: The in vitro stability of SX-682 and the congeners of Metabolic Stability Example 1 (FIG. 6) were further studied in human plasma. The reactions were initiated by the addition of 5 μl of a 500 μM DMSO stock solution to 495 μl of preheated plasma solution to yield a final concentration of 5 μM. The assays were performed in a heat block at 37° C. and conducted in duplicate. Samples (50 μl) were taken at 0, 30, 60, 120, 240 min and added to 150 μL acetonitrile in order to deproteinize the plasma. The samples were subjected to vortex mixing for 1 min and then centrifugation for 15 min at 14,000 rpm. The clear supernatants were analyzed by LC-MS.
The in vitro plasma half-life (t½) was calculated using the expression t½=ln(2)/b where b is the slope found in the linear fit of the natural logarithm of the fraction remaining of the parent compound vs. incubation time.

Sprague-Dawley rats = assay: Ozone rat model of pulmonary inflammation (neutrophil influx into BALF); type: in vivo; conditions: 1 mg/kg i.v. once, 1 ppm ozone 4 hours, BALF at 24 hours
Description: SX-682 was assayed in an in vivo rat model of pulmonary inflammation. Activity in this model of pulmonary inflammation provides evidence that supports the use of SX-682 in the treatment of a number of pulmonary inflammatory diseases, including chronic obstructive pulmonary disease (COPD) and bronchopulmonary dysplasia (BPD). In this experiment, Sprague-Dawley rats (n=4 per cohort) were dosed intravenously only once at t=0 with either vehicle control (dimethylformamide/PEG400/saline, 40:40:20), positive inhibitor control (SX-576, 1 mg/kg) or the test compound (SX-682, 1 mg/kg). The rats were then placed in air (negative exposure group; vehicle control only) or 1 ppm ozone (positive exposure group; vehicle control, positive inhibitor control SX-576, and test compound SX-682) for 4 hours. The rats were then sacrificed at t=24 hours, and the bronchoalveolar lavage fluid (BALF) was collected. The cells were spun down, stained with Wright-Giemsa and counted. In the negative exposure group, no neutrophils were observed when stained. In the ozone exposed rats treated with vehicle however, there was a brisk influx of neutrophils of approximately 14,000 per mL of BALF (FIG. 5).

[3] = tested on: C3Tag mouse model of breast cancer; assay: C3Tag mouse model of breast cancer; type: in vivo; conditions: SX-682 10 mg/day/mouse oral; carboplatin 50 mg/kg weekly i.p.; vehicle 18 days
From the text: The C31-T-antigen (C3Tag) mouse model is a validated model of human triple-negative basal cell breast cancer as shown by gene expression analysis (Maroulakou, 1994, Proc Natl Acad Sci, 91:11236-40, herein incorporated by reference). The expressed large T-antigen binds and inactivates the RB and p53 tumor suppressor genes, explaining why this model faithfully recapitulates human basal breast cancer, which also harbors RB and p53 inactivation. This model also has frequent K-Ras amplification and infrequent Ras mutations. Treatment regimens were started following tumor manifestation. SX-682 was given orally via medicated feed, at an approximate dose of 10 mg/day/mouse. CP was administered once weekly via intraperitoneal injection at a dose of 50 mg/kg.

| Structure (SMILES) | activity on neutrophils (neutrophils) | t½, half-life [1] [h] | t½ [2] [h] | reduction in plasma half-life ([2]; relative to SX-682/SX-576) [fold] | influx of neutrophils into the lungs (BALF) vs vehicle (Sprague-Dawley rats) | median survival, single agent [3] [days] |
| --- | --- | --- | --- | --- | --- | --- |
| O=C(Nc1ccc(F)cc1)c1ccc(SCc2ccccc2B(O)O)nc1 [SX-517] | both inhibitory and agonist activity on neutrophils were achieved | 6.75 | 1.88 | 5 |  |  |
| O=C(Nc1ccc(F)cc1)c1ccc(SCc2cc(OC(F)(F)F)ccc2B(O)O)nc1 [SX-576] | both inhibitory and agonist activity on neutrophils were achieved | 0.833 | 8.88 |  | significantly decreased the influx of neutrophils |  |
| N.N.O=C([O-])C1(C(=O)[O-])CCC1.[Pt+2] [carboplatin, reference compound] |  |  |  |  |  | 28 |
